# Results reported in patent US6737383B1, “Herbicidal oxadiazolidines” (priority 1999, dated 2004).
# Experiments:
# smallflower flatsedge = test: Test B flood test smallflower flatsedge; type: in vivo, Cyperus difformis
# Summary of the method: (§1)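 Read-out is a visual response score from 0 (no effect) to 10 (complete control), assigned by comparison with untreated controls. Treatment was applied at the 2-leaf stage, and plants stayed in the greenhouse for twelve to sixteen days before scoring.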
# blackgrass = test: Test B pre/postemergence blackgrass; type: in vivo, Alopecurus myosuroides
# Summary of the method: (§2)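 Test chemicals in a non-phytotoxic solvent mixture with surfactant were sprayed preemergence onto planted seeds and postemergence onto plants 2 to 18 cm tall (1- to 4-leaf stage). After twelve to sixteen days in a greenhouse, injury was visually rated against untreated controls from 0 (no effect) to 10 (complete control).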
# rice = test: Test B flood test rice; type: in vivo, Oryza sativa
# Summary of the method: as §1
# velvetleaf = test: Test B pre/postemergence velvetleaf; type: in vivo, Abutilon theophrasti
# Summary of the method: as §2
# purple nutsedge = test: Test B pre/postemergence purple nutsedge; type: in vivo, Cyperus rotundus
# Summary of the method: as §2
# rape = test: Test B pre/postemergence rape; type: in vivo, Brassica napus
# Summary of the method: as §2
# wheat = test: Test B pre/postemergence wheat; type: in vivo, Triticum aestivum
# Summary of the method: as §2
# duck salad = test: Test B flood test duck salad; type: in vivo, Heteranthera limosa
# Summary of the method: as §1
# crabgrass = test: Test B pre/postemergence crabgrass; type: in vivo, Digitaria sanguinalis
# Summary of the method: as §2
# pigweed = test: Test B pre/postemergence pigweed; type: in vivo, Amaranthus retroflexus
# Summary of the method: as §2
# surinam grass = test: Test B pre/postemergence surinam grass; type: in vivo, Brachiaria decumbens
# Summary of the method: as §2
# cocklebur = test: Test B pre/postemergence cocklebur; type: in vivo, Xanthium strumarium
# Summary of the method: as §2
# giant foxtail = test: Test B pre/postemergence giant foxtail; type: in vivo, Setaria faberii
# Summary of the method: as §2
# corn = test: Test B pre/postemergence corn; type: in vivo, Zea mays
# Summary of the method: as §2
# sugar beet = test: Test B pre/postemergence sugar beet; type: in vivo, Beta vulgaris
# Summary of the method: as §2
# morningglory = test: Test B pre/postemergence morningglory; type: in vivo, Ipomoea hederacea
# Summary of the method: as §2
# [1] = Rate 62 g/ha, headed Pre-emergence (flood test species), scale 0 to 10 (0 no effect, 10 complete control)
# [2] = Rate 125 g/ha, Pre-emergence, flood test species, scale 0 to 10 where 0 is no effect and 10 is complete control
# [3] = Rate 250 g/ha, Pre-emergence, flood-test species, scale 0 to 10, 0 is no effect, 10 is complete control
# [4] = Rate 500 g/ha, Pre-emergence, flood test species, scale 0 to 10 (0 no effect, 10 complete control)
# [5] = Preemergence, Rate 62 g/ha, scale of 0 to 10 where 0 is no effect and 10 is complete control
# [6] = Preemergence, Rate 250 g/ha, scale of 0 to 10 where 0 is no effect and 10 is complete control
# [7] = Preemergence, Rate 500 g/ha, scale of 0 to 10 where 0 is no effect and 10 is complete control
# [8] = Rate 62 g/ha, Postemergence, scale 0 to 10 (0 no effect, 10 complete control)
# [9] = Rate 125 g/ha, Postemergence, scale of 0 to 10 where 0 is no effect and 10 is complete control
# [10] = Rate 250 g/ha, Postemergence, scale of 0 to 10 where 0 is no effect and 10 is complete control
# [11] = Rate 500 g/ha, Postemergence, scale 0 to 10, 0 no effect, 10 complete control
compound,measurement,setting,value
Cc1cccc(C(C)(C)C)c1-n1c(=O)on(C(=O)N(c2ccccc2)C(C)C)c1=O [Compound 303],S. Flatsedge plant response rating,smallflower flatsedge; [1],0
same,S. Flatsedge plant response rating,smallflower flatsedge; [2],0
same,S. Flatsedge plant response rating,smallflower flatsedge; [3],0
same,S. Flatsedge plant response rating,smallflower flatsedge; [4],0
same,Blackgrass plant response rating,blackgrass; [5],0
same,Blackgrass plant response rating (0 to 10 scale),"blackgrass; Preemergence, Rate 125 g/ha",0
same,Blackgrass plant response rating,blackgrass; [6],0
same,Blackgrass plant response rating,blackgrass; [7],0
same,Blackgrass plant response rating,blackgrass; [8],0
same,Blackgrass plant response rating,blackgrass; [9],0
same,"Plant response rating, Blackgrass",blackgrass; [10],0
same,Blackgrass plant response rating,blackgrass; [11],0
same,Rice plant response rating,rice; [1],0
same,Rice plant response rating,rice; [2],0
same,Rice plant response rating,rice; [3],0
same,Rice plant response rating,rice; [4],0
same,Velvetleaf plant response rating,velvetleaf; [5],0
same,Velvetleaf plant response rating (0 to 10 scale),"velvetleaf; Preemergence, Rate 125 g/ha",0
same,Velvetleaf plant response rating,velvetleaf; [6],0
same,Velvetleaf plant response rating,velvetleaf; [7],0
same,Velvetleaf plant response rating,velvetleaf; [8],0
same,Velvetleaf plant response rating,velvetleaf; [9],0
same,"Plant response rating, Velvetleaf",velvetleaf; [10],0
same,Nutsedge plant response rating,purple nutsedge; [5],0
same,Nutsedge plant response rating,purple nutsedge; [6],0
same,Nutsedge plant response rating,purple nutsedge; [7],0
same,Nutsedge plant response rating,purple nutsedge; [8],0
same,Nutsedge plant response rating,purple nutsedge; [9],0
same,"Plant response rating, Nutsedge",purple nutsedge; [10],0
same,Rape plant response rating,rape; [5],0
same,Rape plant response rating (0 to 10 scale),"rape; Preemergence, Rate 125 g/ha",0
same,Rape plant response rating,rape; [6],0
same,Rape plant response rating,rape; [7],0
same,Rape plant response rating,rape; [8],0
same,Rape plant response rating,rape; [9],0
same,"Plant response rating, Rape",rape; [10],0
same,Wheat plant response rating,wheat; [5],0
same,Wheat plant response rating (0 to 10 scale),"wheat; Preemergence, Rate 125 g/ha",0
same,Wheat plant response rating,wheat; [6],0
same,Wheat plant response rating,wheat; [7],0
same,Wheat plant response rating,wheat; [8],0
same,Wheat plant response rating,wheat; [9],0
same,"Plant response rating, Wheat",wheat; [10],0
same,Ducksalad plant response rating,duck salad; [1],0
same,Ducksalad plant response rating,duck salad; [2],0
same,Ducksalad plant response rating,duck salad; [3],0
same,Ducksalad plant response rating,duck salad; [4],0
same,Crabgrass plant response rating,crabgrass; [5],0
same,Crabgrass plant response rating (0 to 10 scale),"crabgrass; Preemergence, Rate 125 g/ha",0
same,Crabgrass plant response rating,crabgrass; [6],0
same,Crabgrass plant response rating,crabgrass; [8],0
same,Crabgrass plant response rating,crabgrass; [9],0
same,"Plant response rating, Crabgrass",crabgrass; [10],0
same,Redroot pigweed plant response rating,pigweed; [5],0
same,Redroot pigweed plant response rating (0 to 10 scale),"pigweed; Preemergence, Rate 125 g/ha",0
same,Redroot pigweed plant response rating,pigweed; [6],0
same,Redroot pigweed plant response rating,pigweed; [7],0
same,Redroot pigweed plant response rating,pigweed; [8],0
same,Redroot pigweed plant response rating,pigweed; [9],0
same,"Plant response rating, Redroot pigweed",pigweed; [10],2
same,B. signalgrass plant response rating,surinam grass; [5],0
same,"B. signalgrass plant response rating (0 to 10 scale, 0 is no effect, 10 is complete control)","surinam grass; Preemergence, Rate 125 g/ha",0
same,B. signalgrass plant response rating,surinam grass; [6],0
same,B. signalgrass plant response rating,surinam grass; [7],0
same,B. signalgrass plant response rating,surinam grass; [8],0
same,B. signalgrass plant response rating,surinam grass; [9],0
same,"Plant response rating, B. signalgrass",surinam grass; [10],0
same,B. signalgrass plant response rating,surinam grass; [11],0
same,Cocklebur plant response rating,cocklebur; [5],0
same,Cocklebur plant response rating (0 to 10 scale),"cocklebur; Preemergence, Rate 125 g/ha",0
same,Cocklebur plant response rating,cocklebur; [6],0
same,Cocklebur plant response rating,cocklebur; [7],0
same,Cocklebur plant response rating,cocklebur; [8],0
same,Cocklebur plant response rating,cocklebur; [9],0
same,"Plant response rating, Cocklebur",cocklebur; [10],0
same,Cocklebur plant response rating,cocklebur; [11],0
same,Giant foxtail plant response rating,giant foxtail; [5],0
same,Giant foxtail plant response rating (0 to 10 scale),"giant foxtail; Preemergence, Rate 125 g/ha",0
same,Giant foxtail plant response rating,giant foxtail; [6],0
same,Giant foxtail plant response rating,giant foxtail; [7],0
same,Giant foxtail plant response rating,giant foxtail; [8],0
same,Giant foxtail plant response rating,giant foxtail; [9],0
same,"Plant response rating, Giant foxtail",giant foxtail; [10],0
same,Corn plant response rating,corn; [5],0
same,Corn plant response rating (0 to 10 scale),"corn; Preemergence, Rate 125 g/ha",0
same,Corn plant response rating,corn; [6],0
same,Corn plant response rating,corn; [7],0
same,Corn plant response rating,corn; [8],0
same,Corn plant response rating,corn; [9],0
same,"Plant response rating, Corn",corn; [10],0
same,Corn plant response rating,corn; [11],0
same,Sugarbeets plant response rating,sugar beet; [5],0
same,Sugarbeets plant response rating (0 to 10 scale),"sugar beet; Preemergence, Rate 125 g/ha",0
same,Sugarbeets plant response rating,sugar beet; [6],0
same,Sugarbeets plant response rating,sugar beet; [7],0
same,Sugarbeets plant response rating,sugar beet; [8],0
same,Sugarbeets plant response rating,sugar beet; [9],0
same,"Plant response rating, Sugarbeets",sugar beet; [10],0
same,Morningglory plant response rating,morningglory; [5],0
same,Morningglory plant response rating (0 to 10 scale),"morningglory; Preemergence, Rate 125 g/ha",0
same,Morningglory plant response rating,morningglory; [6],0
same,Morningglory plant response rating,morningglory; [7],3
same,Morningglory plant response rating,morningglory; [8],0
same,Morningglory plant response rating,morningglory; [9],0
same,"Plant response rating, Morningglory",morningglory; [10],0
